{"source": "patent US20230233545A1", "about": "“TREATMENT OF ATRIAL DYSFUNCTION” (MyoKardia, Inc., priority 2020, published 2023)", "key": {"[1]": {"target": "T1, recombinant human cardiac S1 myosin (Homo sapiens, UniProt P12883)", "T1 construct": "subfragment-1 (51) myosins from cardiac (recombinant human), skeletal (rabbit psoas) and smooth (chicken gizzard) muscles; made in house", "T1 sequence (P12883 1-808 limits assumed)": "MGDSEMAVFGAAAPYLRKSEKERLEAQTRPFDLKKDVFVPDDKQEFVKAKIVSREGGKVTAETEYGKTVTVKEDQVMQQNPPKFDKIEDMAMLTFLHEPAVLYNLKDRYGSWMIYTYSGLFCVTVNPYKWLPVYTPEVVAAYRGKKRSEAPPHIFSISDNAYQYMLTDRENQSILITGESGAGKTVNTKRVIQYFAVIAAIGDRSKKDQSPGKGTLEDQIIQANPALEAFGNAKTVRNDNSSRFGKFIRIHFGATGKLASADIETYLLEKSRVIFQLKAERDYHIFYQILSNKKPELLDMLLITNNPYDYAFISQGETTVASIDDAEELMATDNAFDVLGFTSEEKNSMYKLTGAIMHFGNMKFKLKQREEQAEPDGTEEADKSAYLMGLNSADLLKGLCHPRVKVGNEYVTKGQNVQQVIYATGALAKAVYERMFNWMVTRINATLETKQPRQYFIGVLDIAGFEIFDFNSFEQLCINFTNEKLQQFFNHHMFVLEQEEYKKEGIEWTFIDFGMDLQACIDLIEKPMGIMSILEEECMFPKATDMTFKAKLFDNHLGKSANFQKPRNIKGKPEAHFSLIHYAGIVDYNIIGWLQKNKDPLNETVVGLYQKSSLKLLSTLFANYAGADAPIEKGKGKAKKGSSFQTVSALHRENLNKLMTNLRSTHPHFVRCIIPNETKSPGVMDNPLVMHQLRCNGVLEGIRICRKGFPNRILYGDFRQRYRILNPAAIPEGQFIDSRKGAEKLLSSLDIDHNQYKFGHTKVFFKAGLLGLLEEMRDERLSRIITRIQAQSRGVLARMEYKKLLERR", "T1 sequence (P08590 2-195 partner limits assumed)": "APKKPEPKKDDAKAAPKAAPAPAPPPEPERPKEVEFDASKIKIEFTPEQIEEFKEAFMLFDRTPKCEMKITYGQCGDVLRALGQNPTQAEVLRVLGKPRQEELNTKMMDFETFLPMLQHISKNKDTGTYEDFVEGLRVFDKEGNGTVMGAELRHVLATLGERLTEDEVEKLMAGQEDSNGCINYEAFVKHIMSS", "experiment": "Actin-activated ATPase, cardiac S1 myosin", "type": "biochemical", "details": "at 3 μM", "experimental": "The ability of Compound I to increase myocardial ATP turnover rates selectively was evaluated using both left atrial (LA) and left ventricular (LV) myofibrils prepared from Yucatan mini-pig hearts, as well as subfragment-1 (51) myosins from cardiac (recombinant human), skeletal (rabbit psoas) and smooth (chicken gizzard) muscles. Pig hearts were harvested, and the left atria/ventricles were freshly excised, dissected, frozen in liquid nitrogen and stored at −80° C. […]\nSteady-state ATPase measurements at varying concentrations of Compound I (0-50 μM, in 2% DMSO) were conducted using a coupled enzyme system utilizing pyruvate kinase and lactate dehydrogenase. This enzyme system couples the formation of ADP to the oxidation of NADH leading to an absorbance change at 340 nm. […] All measurements were carried out at 25° C. using a plate reader (SpectraMax; Molecular Devices, LLC, CA, USA) to monitor the change in absorbance as a function of time; data were normalized to a per-second scale as described in Green et al., Science (2016) 351(6273):617-21. […]"}, "[2]": {"system": "beagle dogs under isoflurane anesthesia, right-atrial burst pacing", "experiment": "AF inducibility and LA size/function with phenylephrine on board (Example 3)"}, "[3]": {"system": "dogs with microembolization-induced heart failure", "experiment": "Echocardiography/haemodynamics in dogs with microembolization-induced heart failure", "type": "in vivo, beagle dogs", "details": "2-3 mg/kg orally, 5 hours post-treatment", "source_text": "Seven male beagle dogs underwent a modified serial coronary microembolization protocol to produce chronic LV dysfunction and HF (Geist et al., J Pharmacol Toxicol Methods (2019) 99:106595), as determined by both LV remodeling and decreases in LV ejection fraction (LVEF). A subset of animals (n=5) were also surgically implanted with a radio-telemetry transmitter (TL11M3-D70-PCTP; Data Sciences Int., MN, USA) to provide systemic arterial blood and LV pressures. The microembolization and instrumentation techniques employed have been previously validated (Hartman et al., JACC Basic Transl Sci. (2018) 3(5):625-38).\nThe effects of Compound I (at 2-3 mg/kg oral tablet; n=14) on LV/LA function and geometry, as well as systemic/ventricular haemodynamics, were examined by echocardiography in conscious, lightly sedated animals (butorphanol 0.25-0.5 mg/kg intravenous) before dosing (i.e., baseline) as well at 5 hours post-treatment.\nIn these experiments, 2D and 2D-guided M-mode echocardiographic (CX50; Philips Medical System, MA, USA) recordings of LV dimension, LA dimension (LAd) and aortic dimension (Aod), as well as LV volume estimates (Simpson's and Teichholz's methods), were obtained at end-systole/diastole in both short-axis (papillary-level) and/or apical/parasternal long-axis views. From these measurements, LV stroke volume (LVSV), cardiac output (CO), LV fractional shortening (LVFS), LV fractional area of shortening and LVEF, as well as the LAd/Aod ratio, were calculated. LV outflow tract (LVOT) blood velocity (via Doppler) was measured and the LVOT velocity−time integral (LVOT−VTI) calculated. In addition, maximal (end-systolic, LAmax) and minimal (end-diastolic, LAmin) LA volumes were measured using the bi-plane method; both LA emptying fraction (LAEF=100×[LAmax−LAmin]/LAmax) and LA functional index (LAFI=[LAEF×LVOT−VTI]/LAmax index) were calculated (Thomas et al., Eur J Echocardiogr (2008) 9(3):356-362). Diastolic trans-mitral peak flow velocities (E and A), mitral-annulus tissue velocities (e′, s′ and a′), and their ratios during early filling (E/e′), were recorded/used as indices of diastolic performance. In all cases, atrial and ventricular indexed volumes were calculated by normalizing to the estimated body surface area (0.101×[body weight in kg][…]), while reported data were derived by averaging at least three cardiac cycles. Finally, haemodynamic signals were digitally acquired (1000 Hz) and recorded continuously with a data acquisition/analysis system (IOX; EMKA Technologies). Heart rate (HR) and end-systolic and end-diastolic pressures, as well as the peak rates of pressure rise and decline (dP/dtmax and dP/dtmin, respectively), the contractility index (dP/dt/P at dP/dtmax), and the time constant of myocardial relaxation (tau1/2, time for 50% decay from dP/dtmin) were derived from the LV pressure signal. Systolic, diastolic and mean systemic blood pressures, as well as pulse pressures, were derived from the aortic pressure signal. Haemodynamic data were reported as the average over at least 1 minute (at steady state). In vivo data are presented as means (SD) in the text or as mean±SEM in the figures; mean differences between pre- and post-treatment values were evaluated via a two-tailed paired t-test with a significance level of 0.05 set a priori (GraphPad Prism, GraphPad Software Inc., CA, USA)."}, "[4]": {"details": "0.3-0.4 mg/kg IV bolus with 0.3/0.4 mg/kg/hr IV infusion, P<0.05"}, "[5]": {"details": "IV bolus + infusion with PE vs PE alone, FIG. 4"}}}
{"smiles": "Cn1cc(S(=O)(=O)[C@@](C)(F)C2CCN(C(=O)Nc3ccon3)CC2)c(C(F)F)n1", "note": "[Compound I, (R)-4-(1-((3-(difluoromethyl)-1-methyl-1H-pyrazol-4-yl)sulfonyl)-1-fluoroethyl)-N-(isoxazol-3-yl)piperidine-1-carboxamide]", "values": [{"measurement": "increase in ATPase rate, cardiac (human) S1 myosin", "setting": "[1]", "result": 1.4, "unit": "fold"}, {"measurement": "fractional shortening (FS), increase", "setting": "[2]; [4]", "result": "13±3", "unit": "%"}, {"measurement": "left-ventricular stroke volume (SV), increase", "setting": "[2]; [4]", "result": "16±5", "unit": "%"}, {"measurement": "systolic ejection time (SET), change", "setting": "[2]; 0.3-0.4 mg/kg IV bolus with 0.3/0.4 mg/kg/hr IV infusion, prolonged, P<0.05", "result": "10±3", "unit": "%"}, {"measurement": "SBP under Compound I", "setting": "[2]; 0.3-0.4 mg/kg IV bolus with IV infusion, PE on board, systemic pressures preserved", "result": "135.7±6.2", "unit": "mmHg"}, {"measurement": "LV contractility (ΔEF)", "setting": "[2]; Compound I, Example 3 protocol, FIG. 6", "result": "increase LV contractility"}, {"measurement": "atrial emptying fraction (LA EF)", "setting": "[2]; [5]", "result": "increasing the atrial emptying fraction"}, {"measurement": "left-atrial size (LA Volmin)", "setting": "[2]; [5]", "result": "decreased left-atrial size"}, {"measurement": "AF inducibility (e.g., AF duration)", "setting": "[2]; IV bolus + infusion with PE vs PE alone, burst pacing, FIG. 4", "result": "decreasing AF inducibility"}, {"measurement": "LVESD", "setting": "[3]; SD ±0.2, baseline 3.4 (±0.2), p<0.05", "result": 3.2, "unit": "cm"}, {"measurement": "E/A", "setting": "[3]; SD ±0.3, baseline 1.6 (±0.2)", "result": 1.6}, {"measurement": "LVEDD", "setting": "[3]; SD ±0.3, baseline 4.3 (±0.2)", "result": 4.3, "unit": "cm"}, {"measurement": "e′ (mitral annular velocity)", "setting": "[3]; SD ±1.1, baseline 7.4 (±1.0)", "result": 7.3, "unit": "cm/s"}, {"measurement": "a′ (late peak mitral annular velocity)", "setting": "[3]; SD ±1.3, baseline 4.0 (±1.2), p<0.05", "result": 5.4, "unit": "cm/s"}, {"measurement": "CO (cardiac output, estimated)", "setting": "[3]; SD ±1.6, baseline 3.4 (±0.9), p<0.05", "result": 4.1, "unit": "L/min"}, {"measurement": "LVFS", "setting": "[3]; SD ±3.6, baseline 19.6 (±2.7), p<0.05", "result": 25.6, "unit": "%"}, {"measurement": "LVGCS (LV global circumferential strain)", "setting": "[3]; SD ±4.4, baseline −13.5 (±4.4), p<0.05", "result": "−17.3", "unit": "%"}, {"measurement": "LVEF", "setting": "[3]; SD ±6, baseline 41 (±5), p<0.05", "result": 51, "unit": "%"}, {"measurement": "LAFI (left atrial functional index)", "setting": "[3]; SD ±6.5, baseline 7.7 (±3.3), p<0.05", "result": 15.2}, {"measurement": "LAEF (left atrial emptying fraction)", "setting": "[3]; SD ±6.9, baseline 20.4 (±4.4), p<0.05", "result": 31.1, "unit": "%"}, {"measurement": "A (late peak wave velocity, mitral inflow)", "setting": "[3]; SD ±8, baseline 41 (±6)", "result": 46, "unit": "cm/s"}, {"measurement": "LAmin Vol. index (LAminVi)", "setting": "[3]; SD ±9.0, baseline 21.2 (±8.3), p<0.05", "result": 17.9, "unit": "mL/m^2"}, {"measurement": "LAmax Vol. index", "setting": "[3]; SD ±9.7, baseline 26.7 (±9.7), p<0.05", "result": 25.1, "unit": "mL/m^2"}, {"measurement": "DBP (diastolic blood pressure)", "setting": "[3]; SD ±13, baseline 66 (±10)", "result": 72, "unit": "mmHg"}, {"measurement": "E (early trans-mitral peak wave velocity)", "setting": "[3]; SD ±40, baseline 71 (±12)", "result": 74, "unit": "cm/s"}, {"measurement": "SET (systolic ejection time)", "setting": "[3]; baseline 178 (±24), p<0.05", "result": 200, "unit": "ms"}, {"measurement": "LVSV (left ventricular stroke volume)", "setting": "[3]; mean, SD ±10.7, baseline 33.0 (±5.9), p<0.05", "result": 43.6, "unit": "mL"}, {"measurement": "E/e′", "setting": "[3]; n/u, SD ±1.2, baseline 9.7 (±1.9)", "result": 10.2}, {"measurement": "LVEDP (LV end-diastolic pressure)", "setting": "[3]; telemetry subset, SD ±4, baseline 18 (±2)", "result": 16, "unit": "mmHg"}, {"measurement": "SBP (systolic blood pressure)", "setting": "[3]; telemetry subset, SD ±10, baseline 110 (±10)", "result": 119, "unit": "mmHg"}, {"measurement": "HR (heart rate)", "setting": "[3]; telemetry subset, SD ±50, baseline 108 (±45), p<0.05", "result": 99, "unit": "bpm"}]}
